Measured values as given in article PMC9374667 (Communications Biology, 2022).
In brackets after ≈: the same amount, converted by molar mass. Several values for one entry are separate records, joined by “and”; a condition that tells them apart may be missing. Equal values may be shown once.

What was measured:
db/db mice [1] = assay: HE staining of epididymal adipose tissue, adipocyte size; assay type: in vivo; details: BJ 75 and 150 mg/kg, BBR 150 mg/kg, Ibu 150 mg/kg
Experimental: The adipose tissue was fixed overnight in 4% paraformaldehyde, then embedded in paraffin and cut into 5 µm thick slices. Tissue sections were stained with hematoxylin and eosin (H&E). For immunohistochemistry, sections were incubated with primary antibodies against F4/80 (1:100 dilution) diluted in the blocking solution at 4 °C overnight. The tissue sections were then incubated with the horseradish peroxidase (HRP)-conjugated secondary antibody at room temperature for 2 h. Finally, the sections were developed with diaminobenzidine (DAB) and counterstained with hematoxylin. Images were obtained under a microscope. To quantify the F4/80-positive macrophages, two random fields per sample were analyzed by Image J software. The IHC profiler plugin of ImageJ was used to calculate the F4/80 positive area.

[2] = pH of the solution after 24 hours of the dissolution test; assay type: physicochemical
Experimental: Solubilities were determined by adding excess sample to 30 mL different mediums, such as HCl solution, acetate buffer, phosphate buffer, SGF, FaSSIF and FeSSIF. The configuration of various buffer solutions is shown in Supplementary Table 2. After being shaken at 400 rpm at 37 °C for 0.5, 1, 2, and 24 h, 0.3 mL of suspension was sampled and centrifuged at 14,000 rpm for 8 min to isolate mother liquor, and then analyzed by HPLC after dilution. All samples were analyzed in triplicate. […]
into a 1000 mL flask followed by addition of about 800 mL of deionized water. The mixture is stirred until all solids are dissolved.
Add about 100 mL of 0.1 N HCl, check pH value with a pH meter and adjust the pH to 2.0 with HCl (1 N) or NaOH (1 N). Then dilute to the volume with deionized water.
* 1N sodium hydroxide: Weigh 8 g NaOH in a 200 mL plastic volumetric flask, add deionized water to volume and mix well. […]
phosphate and 3.093 g sodium chloride in a 500 mL volumetric flask, add about 0.450 L deionized water, and adjust the pH to 6.5 with 1N sodium hydroxide or 1 N hydrochloric acid. Make up to volume (0.5 […]
Step 2: Place and dissolve 1.120 g FaSSIF/FeSSIF/FaSSGF instant powder with 0.250 L of buffer (from step 1) in a 500 mL volumetric flask, then add buffer (from step 1) to volume, and mix well. […]
g sodium chloride in a 500 mL volumetric flask, add about 0.450 L deionized water, and adjust the pH to 5.0 with 1 N sodium hydroxide or 1 N hydrochloric acid. Make up to volume (500 mL) with
Step 2: Place and dissolve 5.600 g FaSSIF/FeSSIF/FaSSGF instant […]
0.750 L deionized water. Make up to volume (1000 mL) with deionized water and placed overnight.
(1 picture or pasted object on this page, not shown here)

db/db mice [3] = assay: Glucose tolerance test (GTT); assay type: in vivo; details: 150mg/kg
db/db mice [4] = assay: Insulin tolerance test (ITT), AUC and initial slope; assay type: in vivo; details: db/db mice, IBU 150mg/kg
Experimental: Mice were fasted for 4 h for insulin resistance test and intraperitoneally injected with 1 unit/kg of insulin. Blood glucose levels were measured from the tail vein blood at 0, 15, 30, 45, 60, 90, and 120 min after injection. Plasma insulin levels were measured using an ultrasensitive mouse insulin ELISA kit (Nanjing Jiancheng Bioengineering Institute, Nanjing, China).

[5] = In vitro dissolution studies: dynamic solubility in buffers and simulated biological fluids; assay type: physicochemical; design: BBR dissolved in CMC-Na (Figure S7a) / Ibu dissolved in CMC-Na (Figure S7b): unit not given here; details: mean; for solubility at 0.5 h / solubility at 1 h / solubility at 2 h / solubility at 24 h: 37 °C
Experimental: Solubilities were determined by adding excess sample to 30 mL different mediums, such as HCl solution, acetate buffer, phosphate buffer, SGF, FaSSIF and FeSSIF. The configuration of various buffer solutions is shown in Supplementary Table 2. After being shaken at 400 rpm at 37 °C for 0.5, 1, 2, and 24 h, 0.3 mL of suspension was sampled and centrifuged at 14,000 rpm for 8 min to isolate mother liquor, and then analyzed by HPLC after dilution. All samples were analyzed in triplicate.

db/db mice [6] = assay: Fat depots weight (BAT, iWAT, eWAT; percentage of body weight); assay type: in vivo
Experimental: The lean wild type control and the db/db control mice were given equal vehicle volume (0.5% CMC-Na solution). All mice were monitored for food intake, body weight, and fasting blood glucose during the 35-day trial. Glucose tolerance test (GTT) and insulin resistance test (ITT) were performed at 4 and 5 weeks of treatment, respectively. Metabolic analysis was performed at 5 weeks of treatment. At the end of the study, blood samples were taken through the retroorbital venous sinus of mice, fat depots (brown fat, inguinal subcutaneous fat, epididymal fat, perirenal fat and mesenteric fat depot) were dissected, weighed, and immediately frozen in liquid nitrogen and stored at −80 °C until required. Weight of fat depots are expressed in percentage (fat depots weight /bodyweight * 100%).

[7] = aqueous buffer, thermodynamic from solid, Acetate buffer (pH 4.5)
[8] = fasted state simulated intestinal fluid (FaSSIF-V1), FaSSIF-V1 (pH 6.5)
[9] = fed state simulated intestinal fluid (FeSSIF-V1), thermodynamic from solid, FeSSIF-V1 (pH 5.0)
[10] = simulated gastric fluid (SGF), SGF (pH 2.0)

CC(C)Cc1ccc(C(C)C(=O)O)cc1 (stereo not shown) [Ibu, Ibuprofen, reference compound]
Size of adipocytes in eWAT compared with vehicle (db/db mice [1]): not significantly different | pH of the solution after 24 hours ([2]; Acetate buffer, blank vehicle 4.54): 4.56 | pH of the solution after 24 hours ([2]; CMC-Na, blank vehicle 6.51): 5.57 | pH of the solution after 24 hours ([2]; FaSSIF-v1, blank vehicle 6.51): 6.04 | pH of the solution after 24 hours ([2]; FeSSIF-v1, blank vehicle 5.04): 5.05 | pH of the solution after 24 hours ([2]; HCl solution, blank vehicle 1.08): 1.07 | pH of the solution after 24 hours ([2]; Phosphate buffer, blank vehicle 6.84): 6.60 | pH of the solution after 24 hours ([2]; SGF, blank vehicle 2.03): 2.00 | Blood Glucose (Figure S9p) (db/db mice [3]; time 0, individual animals): 23.3 mmol/L and 18.9 mmol/L and 18.7 mmol/L and 22.0 mmol/L | Blood Glucose (Figure S9p) (db/db mice [3]; time 15, individual animals): 33.3 mmol/L | Blood Glucose (Figure S9p) (db/db mice [3]; time 30, individual animals): 33.3 mmol/L | Blood Glucose (Figure S9p) (db/db mice [3]; time 45, individual animals): 33.3 mmol/L | Blood Glucose (Figure S9p) (db/db mice [3]; time 60, individual animals): 33.3 mmol/L and 31.7 mmol/L and 32.4 mmol/L | Blood Glucose (Figure S9p) (db/db mice [3]; time 90, individual animals): 33.3 mmol/L and 29.2 mmol/L and 22.9 mmol/L | Blood Glucose (Figure S9p) (db/db mice [3]; time 120, individual animals): 30.3 mmol/L and 22.8 mmol/L and 23.9 mmol/L | Blood Glucose (db/db mice [4]; times 0, individual animals (Figure S9p/S9r)): 22.4 mmol/L and 22.3 mmol/L and 22.8 mmol/L | Blood Glucose (db/db mice [4]; times 15, individual animals (Figure S9p/S9r)): 24.0 mmol/L | Blood Glucose (db/db mice [4]; times 30, individual animals (Figure S9p/S9r)): 19.6 mmol/L and 21.3 mmol/L and 20.3 mmol/L and 18.8 mmol/L | Blood Glucose (db/db mice [4]; times 45, individual animals (Figure S9p/S9r)): 13.8 mmol/L and 18.5 mmol/L and 19.5 mmol/L and 17.5 mmol/L and 15.3 mmol/L and 15.6 mmol/L | Blood Glucose (db/db mice [4]; times 60, individual animals (Figure S9p/S9r)): 15.0 mmol/L and 13.2 mmol/L and 20.4 mmol/L and 15.7 mmol/L | Blood Glucose (db/db mice [4]; times 90, individual animals (Figure S9p/S9r)): 15.6 mmol/L and 21.3 mmol/L and 21.6 mmol/L and 14.9 mmol/L and 15.0 mmol/L | Blood Glucose (db/db mice [4]; times 120, individual animals (Figure S9p/S9r)): 18.2 mmol/L and 22.9 mmol/L and 18.8 mmol/L and 16.9 mmol/L and 15.3 mmol/L | solubility at 0.5 h ([5]; Acetate buffer (pH 4.5)): 89.5 µg/mL (≈ 0.434 mM) | solubility at 1 h ([5]; Acetate buffer (pH 4.5)): 103 µg/mL (≈ 0.497 mM) | Ibu dissolved in CMC-Na (Figure S7b) ([5]; time 0.5): 0.09941 | Ibu dissolved in CMC-Na (Figure S7b) ([5]; time 1): 0.1517 | Ibu dissolved in CMC-Na (Figure S7b) ([5]; time 24): 0.385 | solubility at 0.5 h ([5]; Phosphate buffer (pH 6.8)): 2650 µg/mL (≈ 12.9 mM) | solubility at 1 h ([5]; Phosphate buffer (pH 6.8)): 2680 µg/mL (≈ 13 mM) | solubility at 2 h [5, 7]: 124 µg/mL (≈ 0.603 mM) | solubility at 24 h [5, 7]: 125 µg/mL (≈ 0.605 mM) | solubility at 2 h ([5]; aqueous buffer, thermodynamic from solid, Phosphate buffer (pH 6.8)): 2900 µg/mL (≈ 14.1 mM) | solubility at 24 h ([5]; fasted state simulated intestinal fluid (FaSSIF-V1), thermodynamic from solid, FaSSIF-V1 (pH 6.5)): 1480 µg/mL (≈ 7.16 mM) | solubility at 0.5 h [5, 8]: 1660 µg/mL (≈ 8.07 mM) | solubility at 1 h [5, 8]: 1610 µg/mL (≈ 7.8 mM) | solubility at 2 h [5, 8]: 1610 µg/mL (≈ 7.81 mM) | solubility at 0.5 h [5, 9]: 798 µg/mL (≈ 3.87 mM) | solubility at 1 h [5, 9]: 780 µg/mL (≈ 3.78 mM) | solubility at 2 h [5, 9]: 890 µg/mL (≈ 4.31 mM) | solubility at 24 h [5, 9]: 705 µg/mL (≈ 3.42 mM) | solubility at 0.5 h [5, 10]: 51.9 µg/mL (≈ 0.252 mM) | solubility at 1 h [5, 10]: 70.4 µg/mL (≈ 0.341 mM) | solubility at 2 h [5, 10]: 77.3 µg/mL (≈ 0.375 mM) | solubility at 24 h [5, 10]: 59.9 µg/mL (≈ 0.29 mM) | Fat Depots Weight, BAT (db/db mice [6]; 150mg/kg, individual animals): 1.27 g and 2.12 g and 1.64 g and 1.62 g and 1.65 g and 1.78 g | Fat Depots Weight, eWAT (db/db mice [6]; 150mg/kg, individual animals): 3.22 g and 3.09 g and 3.41 g and 3.43 g and 3.15 g and 3.78 g | Fat Depots Weight, iWAT (db/db mice [6]; 150mg/kg, individual animals): 3.71 g and 3.4 g and 3.36 g and 4.03 g and 3.78 g and 4.01 g | Fat depots weight / body weight (db/db mice [6]; 150mg/kg, individual animals): 19.7809% and 19.1502% and 20.6641% and 20.9797% | Fat depots weight compared with vehicle (db/db mice [6]; db/db mice, BJ 75 and 150 mg/kg, BBR 150 mg/kg, Ibu 150 mg/kg): not significantly different
